In article PMC9299796, “A Specialized Dehydrogenase Provides L‐Phenyllactate for FR900359 Biosynthesis” (Chembiochem, 2021):

System: FrsC
Conditions: 0.5 mM NADPH, pH 6, 30 °C, 1 μM FrsC, tag removed

O=C(O)C(=O)Cc1ccccc1 [phenylpyruvic acid]
Km: 1370 ± 410 µM
